pIC50: −log10 of the molar value.
How the values were obtained:
LDHA [1] = biological target: T1, LDHA (Homo sapiens, UniProt P00338); assay: LDHA enzyme inhibition; format: biochemical; settings: 6g vs 6f
PAMPA permeability = format: in vitro ADME
LDHB = LDHB (Homo sapiens, UniProt P07195); assay: LDHB enzyme inhibition; format: biochemical
Rat microsomal stability = format: in vitro ADME; settings: microsomal data
LDHA [2] = biological target: T1, LDHA; assay: Binding to LDHA by SPR; settings: for SPR τ: residence time on LDHA
[3] = system: A673 Ewing's Sarcoma line; assay: Inhibition of proliferation; format: cell-based; settings: A673 cells

LDHB, sequence (P07195 whole entry): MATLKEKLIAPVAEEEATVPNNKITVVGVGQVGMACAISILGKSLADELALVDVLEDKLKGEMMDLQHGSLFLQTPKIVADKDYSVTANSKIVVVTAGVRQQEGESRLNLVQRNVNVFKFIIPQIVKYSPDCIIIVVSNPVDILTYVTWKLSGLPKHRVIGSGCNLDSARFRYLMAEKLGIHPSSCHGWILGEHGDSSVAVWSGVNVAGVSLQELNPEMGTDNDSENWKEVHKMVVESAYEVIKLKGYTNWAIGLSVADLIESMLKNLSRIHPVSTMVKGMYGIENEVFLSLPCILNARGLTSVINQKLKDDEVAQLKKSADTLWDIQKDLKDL

| fold less potent in LDHA inhibition compared with 6f (LDHA [1]) | PAMPA Perm (PAMPA permeability) [×10⁻⁶ cm/s] | pIC50 (LDHB) | metabolic stability (in words) (Rat microsomal stability) | binding to LDHA by SPR (in words) (LDHA [2]) | residence time / dissociation kinetics by SPR (in words) (LDHA [2]) | SPR τ (LDHA [2]) | proliferation IC50 values (in words) [3] | Structure (SMILES) |
| --- | --- | --- | --- | --- | --- | --- | --- | --- |
| ~ 3 fold | – | – | – | – | – | – | – | NS(=O)(=O)c1ccc(Cc2cn(-c3nc(C(=O)O)cs3)nc2-c2cccc(OCc3cccnc3)c2)cc1 [6g] |
| – | 5.8 | 8.52 | reasonable | very tight binding | long residence times | 19,230 s | – | NS(=O)(=O)c1ccc(Cc2c(-c3ccc(F)c(OC4CC4)c3)nn(-c3nc(C(=O)O)cs3)c2CC2CC2)cc1F [12e] |
| – | 2.9 | 8.30 | quite poor | very tight binding | long residence times | 13,568 s | submicromolar | NS(=O)(=O)c1ccc(Cc2c(-c3ccc(F)c(OCc4cccc(F)c4)c3)nn(-c3nc(C(=O)O)cs3)c2CC2CC2)cc1F [12h] |
| – | 12 | 8.22 | – | very tight binding | long residence times | 100,000 s | submicromolar | NS(=O)(=O)c1ccc(Cc2c(-c3ccc(F)c(OCc4ccc(C(F)(F)F)o4)c3)nn(-c3nc(C(=O)O)cs3)c2CC2CC2)cc1F [12j] |
| – | 13 | 7.72 | quite poor | very tight binding | long residence times | 9,708 s | submicromolar | Cc1ccc(Oc2cc(-c3nn(-c4nc(C(=O)O)cs4)c(CC4CC4)c3Cc3ccc(S(N)(=O)=O)c(F)c3)ccc2F)cc1 [12p] |
| – | 1.6 | 8.10 | – | – | faster dissociation kinetics | 286 s | – | NS(=O)(=O)c1ccc(Cc2c(-c3cccc(N4CCOCC4)c3)nn(-c3nc(C(=O)O)cs3)c2CC2CC2)cc1F [13a] |
| – | 4.4 | 9.00 | – | – | faster dissociation kinetics | 59 s | – | NS(=O)(=O)c1ccc(Cc2c(-c3cccc(Nc4ccccc4)c3)nn(-c3nc(C(=O)O)cs3)c2CC2CC2)cc1 [13h] |
| – | 6.4 | 8.70 | good stability | – | – | – | – | NS(=O)(=O)c1ccc(Cc2c(-c3ccc(F)c(NC(=O)c4ccccc4)c3)nn(-c3nc(C(=O)O)cs3)c2CC2CC2)cc1F [13i] |
| – | 5.7 | 8.40 | good stability | – | – | – | – | NS(=O)(=O)c1ccc(Cc2c(-c3ccc(F)c(C(=O)N4CCCC4)c3)nn(-c3nc(C(=O)O)cs3)c2CC2CC2)cc1F [14b] |
| – | 8.7 | 8.70 | – | – | – | – | – | NS(=O)(=O)c1ccc(Cc2c(-c3ccc(F)c(C(=O)NCc4ccccc4)c3)nn(-c3nc(C(=O)O)cs3)c2CC2CC2)cc1F [14d] |

| Structure (SMILES) | fold less potent in LDHA inhibition compared with 6f (LDHA [1]) | PAMPA Perm (PAMPA permeability) [×10⁻⁶ cm/s] | pIC50 (LDHB) | metabolic stability (in words) (Rat microsomal stability) | binding to LDHA by SPR (in words) (LDHA [2]) | residence time / dissociation kinetics by SPR (in words) (LDHA [2]) | SPR τ (LDHA [2]) | proliferation IC50 values (in words) [3] |
| --- | --- | --- | --- | --- | --- | --- | --- | --- |
| NS(=O)(=O)c1ccc(Cc2c(-c3ccc(F)c(OCC4CC4(F)F)c3)nn(-c3nc(C(=O)O)cs3)c2CC2CC2)cc1F (centres unmarked) [12b] | – | 4.9 | 8.52 | reasonable | very tight binding | long residence times | 21,052 s | – |
| NS(=O)(=O)c1ccc(Cc2c(-c3cccc(OCc4ccccc4)c3)nn(-c3nc(C(=O)O)cs3)c2CC2CC2)cc1F [12g] | – | 1.1 | 8.30 | – | – | – | 88,496 s | submicromolar |

Reference: paper PMC8113097 (Bioorganic & medicinal chemistry letters, 2021)
